Laboratory results as given in the supplement of paper PMC10307832.

compound: CC(O)(CS(=O)(=O)c1ccc(F)cc1)C(=O)Nc1ccc(C#N)c(C(F)(F)F)c1 [Bicalutamide] + Cc1nc(Nc2ncc(C(=O)Nc3c(C)cccc3Cl)s2)cc(N2CCN(CCO)CC2)n1 [Dasatinib] (partner 0.075 µM); assay: relative viability (nuclei count vs DMSO), 5 days (fraction); higher = more cells survive; conditions: first compound 0.08 µM
Summary of the method: (§1)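 Five library-drug doses in √10 steps were combined with a fixed anchor-drug dose, or a single drug was given alone, by pin tool to lung cancer cell lines in 1536-well plates the day after seeding. Nuclei were stained and counted after 5 days. Relative viability is the nuclei count in treated wells over that in vehicle wells, taken as the median of duplicate plates.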

Cell Line	relative viability
HCC-78	0.363
NCI-H441	0.646
LCLC-97TM1	0.954
NCI-H2023	0.599
A-427	0.643
NCI-H460	0.498
NCI-H1734	0.454
NCI-H520	0.192
NCI-H2405	0.23
SW 1573	0.525
201T	0.575
NCI-H1915	0.317
HCC-827	0.328
LXF-289	0.214
NCI-H2347	0.318
NCI-H650	0.483
CAL-12T	0.492

Cell Line	relative viability
NCI-H1651	0.449
EPLC-272H	0.375
NCI-H23	0.789
NCI-H1355	0.753
NCI-H322M	0.236
NCI-H1437	0.412
NCI-H1755	0.397
NCI-H2085	0.227
HCC-15	0.666
PC-3 [JPC-3]	1.04
EKVX	0.619
LC-2-ad	0.693
NCI-H1975	0.396
SK-LU-1	0.175
NCI-H661	0.95
RERF-LC-KJ	0.91

same assay, conditions: first compound 0.253 µM

Cell Line	relative viability
HCC-78	0.297
NCI-H441	0.63
LCLC-97TM1	0.853
NCI-H2023	0.48
A-427	0.631
NCI-H460	0.44
NCI-H1734	0.4
NCI-H520	0.195
NCI-H2405	0.199
201T	0.566
NCI-H1915	0.29
HCC-827	0.19
LXF-289	0.25
NCI-H2347	0.307
NCI-H650	0.42
CAL-12T	0.325

Cell Line	relative viability
NCI-H1651	0.322
EPLC-272H	0.336
NCI-H23	0.67
NCI-H1355	0.639
NCI-H322M	0.248
NCI-H1437	0.406
NCI-H1755	0.382
NCI-H2085	0.261
HCC-15	0.568
PC-3 [JPC-3]	0.946
EKVX	0.491
LC-2-ad	0.514
NCI-H1975	0.376
SK-LU-1	0.206
NCI-H661	0.844
RERF-LC-KJ	0.814

same assay, conditions: first compound 0.8 µM

Cell Line	relative viability
HCC-78	0.483
NCI-H441	0.664
LCLC-97TM1	0.813
NCI-H2023	0.758
A-427	0.791
NCI-H460	0.646
NCI-H1734	0.561
NCI-H520	0.185
NCI-H2405	0.235
SW 1573	0.683
201T	0.581
NCI-H1915	0.301
HCC-827	0.315
LXF-289	0.227
NCI-H2347	0.299
NCI-H650	0.456
CAL-12T	0.445

Cell Line	relative viability
NCI-H1651	0.471
EPLC-272H	0.454
NCI-H23	1.07
NCI-H1355	0.797
NCI-H322M	0.264
NCI-H1437	0.466
NCI-H1755	0.446
NCI-H2085	0.267
HCC-15	0.653
PC-3 [JPC-3]	1.05
EKVX	0.662
LC-2-ad	0.701
NCI-H1975	0.462
SK-LU-1	0.177
NCI-H661	1.03
RERF-LC-KJ	1.04

same assay, conditions: first compound 2.53 µM

Cell Line	relative viability
HCC-78	0.375
NCI-H441	0.534
LCLC-97TM1	0.817
NCI-H2023	0.488
A-427	0.607
NCI-H460	0.483
NCI-H1734	0.367
NCI-H520	0.137
NCI-H2405	0.154
SW 1573	0.275
201T	0.57
NCI-H1915	0.252
HCC-827	0.293
LXF-289	0.194
NCI-H2347	0.308
NCI-H650	0.356
CAL-12T	0.256

Cell Line	relative viability
NCI-H1651	0.451
EPLC-272H	0.321
NCI-H23	0.802
NCI-H1355	0.729
NCI-H322M	0.319
NCI-H1437	0.447
NCI-H1755	0.351
NCI-H2085	0.228
HCC-15	0.609
PC-3 [JPC-3]	0.947
EKVX	0.66
LC-2-ad	0.514
NCI-H1975	0.334
SK-LU-1	0.169
NCI-H661	0.722
RERF-LC-KJ	0.694

compound: CC(O)(CS(=O)(=O)c1ccc(F)cc1)C(=O)Nc1ccc(C#N)c(C(F)(F)F)c1 [Bicalutamide] + CC(C)C[C@H](NC(=O)[C@H](Cc1ccccc1)NC(=O)c1cnccn1)B(O)O [Bortezomib] (partner 0.002 µM); assay: as above; conditions: first compound 0.08 µM
Summary of the method: as §1

Cell Line	relative viability
HCC-78	0.498
NCI-H441	0.566
LCLC-97TM1	0.726
NCI-H2023	1.09
A-427	1.04
NCI-H460	1.15
NCI-H1734	1.01
NCI-H520	0.576
